Reference: ChEMBL document CHEMBL1148556, “Synthesis and preliminary biological evaluation of (2S,1'R,2'S)- and (2S,1'S,2'R)-2-(2'-phosphonocyclopropyl)glycines, two novel conformationally constrained l-AP4 analogues” (Bioorg Med Chem Lett, 2006)

Tests used:
[1] = target: Metabotropic glutamate receptor 8 (Rattus norvegicus, UniProt P70579); assay: Displacement of [3H]LY341495 from rat mGluR8 expressed in BHK cells; assay type: cell-based
[2] = target: Metabotropic glutamate receptor 7 (Homo sapiens, UniProt Q14831); assay: Activity at human mGluR7 by measuring cAMP formation in BHK cells; assay type: functional, cell-based
[3] = target: T1, Metabotropic glutamate receptor 4 (Rattus norvegicus, UniProt P31423); assay: Displacement of [3H]L-AP4 from rat mGluR4 expressed in BHK cells; assay type: cell-based
[4] = target: Metabotropic glutamate receptor 6 (Rattus norvegicus, UniProt P35349); assay: Activity at rat mGluR6 by measuring cAMP formation in CHO cells; assay type: functional, cell-based
[5] = target: Metabotropic glutamate receptor 5 (Rattus norvegicus, UniProt P31424); assay: Activity at rat mGluR5 by measuring intracellular calcium concentration in CHO cells; assay type: functional, cell-based
[6] = target: Metabotropic glutamate receptor 1 (Rattus norvegicus, UniProt P23385); assay: Activity at rat mGluR1 by measuring intracellular calcium concentration in CHO cells; assay type: functional, cell-based
[7] = target: Metabotropic glutamate receptor 2 (Homo sapiens, UniProt Q14416); assay: Activity at human mGluR2 from BHK cells in [35S]GTP-gamma-S stimulation assay; assay type: functional, cell-based
[8] = target: T1, Metabotropic glutamate receptor 4; assay: Functional activity at rat mGluR4

Chain of Metabotropic glutamate receptor 2 (Q14416 whole entry): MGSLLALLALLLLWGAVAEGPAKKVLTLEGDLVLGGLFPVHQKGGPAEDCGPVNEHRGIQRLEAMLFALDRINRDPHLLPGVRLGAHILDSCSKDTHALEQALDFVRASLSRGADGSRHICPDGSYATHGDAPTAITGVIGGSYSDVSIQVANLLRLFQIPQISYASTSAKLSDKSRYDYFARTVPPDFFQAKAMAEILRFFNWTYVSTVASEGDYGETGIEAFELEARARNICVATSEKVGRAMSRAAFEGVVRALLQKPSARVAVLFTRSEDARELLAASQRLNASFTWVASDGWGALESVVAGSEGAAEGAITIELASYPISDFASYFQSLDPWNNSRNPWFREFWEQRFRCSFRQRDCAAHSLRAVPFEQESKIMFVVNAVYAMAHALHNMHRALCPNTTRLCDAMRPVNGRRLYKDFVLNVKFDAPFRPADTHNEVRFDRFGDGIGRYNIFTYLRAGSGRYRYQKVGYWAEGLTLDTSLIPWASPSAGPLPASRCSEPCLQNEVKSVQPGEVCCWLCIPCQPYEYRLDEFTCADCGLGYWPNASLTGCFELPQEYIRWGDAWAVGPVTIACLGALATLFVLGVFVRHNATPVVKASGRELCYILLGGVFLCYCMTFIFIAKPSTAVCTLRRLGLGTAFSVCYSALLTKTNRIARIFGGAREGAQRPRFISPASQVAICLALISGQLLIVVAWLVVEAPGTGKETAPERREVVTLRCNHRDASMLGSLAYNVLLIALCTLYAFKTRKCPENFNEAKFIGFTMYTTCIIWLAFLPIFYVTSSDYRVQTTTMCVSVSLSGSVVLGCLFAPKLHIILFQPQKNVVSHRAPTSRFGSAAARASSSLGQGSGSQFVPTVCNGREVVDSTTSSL
Chain of Metabotropic glutamate receptor 6 (P35349 whole entry): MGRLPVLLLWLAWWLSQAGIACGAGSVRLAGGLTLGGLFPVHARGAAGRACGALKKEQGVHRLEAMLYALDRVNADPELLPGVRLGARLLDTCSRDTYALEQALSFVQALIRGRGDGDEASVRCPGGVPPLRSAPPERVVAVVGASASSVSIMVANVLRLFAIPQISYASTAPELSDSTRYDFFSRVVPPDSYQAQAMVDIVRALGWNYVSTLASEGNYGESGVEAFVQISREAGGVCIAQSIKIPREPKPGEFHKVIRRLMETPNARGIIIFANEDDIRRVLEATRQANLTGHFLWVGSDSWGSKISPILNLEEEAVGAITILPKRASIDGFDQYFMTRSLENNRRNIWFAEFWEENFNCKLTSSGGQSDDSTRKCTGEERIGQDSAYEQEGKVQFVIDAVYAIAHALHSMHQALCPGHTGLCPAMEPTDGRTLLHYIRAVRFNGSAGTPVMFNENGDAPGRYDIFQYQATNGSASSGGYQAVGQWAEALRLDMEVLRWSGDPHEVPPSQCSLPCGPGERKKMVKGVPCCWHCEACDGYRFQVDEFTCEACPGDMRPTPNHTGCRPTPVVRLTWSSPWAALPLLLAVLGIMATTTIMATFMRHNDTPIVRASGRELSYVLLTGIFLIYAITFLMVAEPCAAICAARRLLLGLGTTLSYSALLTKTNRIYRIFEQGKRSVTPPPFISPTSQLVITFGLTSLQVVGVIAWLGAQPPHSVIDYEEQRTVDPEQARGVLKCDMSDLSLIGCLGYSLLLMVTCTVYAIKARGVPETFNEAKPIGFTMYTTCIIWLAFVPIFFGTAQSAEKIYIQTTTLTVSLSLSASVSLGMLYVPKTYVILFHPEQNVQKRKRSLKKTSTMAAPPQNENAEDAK
Chain of Metabotropic glutamate receptor 1 (P23385 whole entry): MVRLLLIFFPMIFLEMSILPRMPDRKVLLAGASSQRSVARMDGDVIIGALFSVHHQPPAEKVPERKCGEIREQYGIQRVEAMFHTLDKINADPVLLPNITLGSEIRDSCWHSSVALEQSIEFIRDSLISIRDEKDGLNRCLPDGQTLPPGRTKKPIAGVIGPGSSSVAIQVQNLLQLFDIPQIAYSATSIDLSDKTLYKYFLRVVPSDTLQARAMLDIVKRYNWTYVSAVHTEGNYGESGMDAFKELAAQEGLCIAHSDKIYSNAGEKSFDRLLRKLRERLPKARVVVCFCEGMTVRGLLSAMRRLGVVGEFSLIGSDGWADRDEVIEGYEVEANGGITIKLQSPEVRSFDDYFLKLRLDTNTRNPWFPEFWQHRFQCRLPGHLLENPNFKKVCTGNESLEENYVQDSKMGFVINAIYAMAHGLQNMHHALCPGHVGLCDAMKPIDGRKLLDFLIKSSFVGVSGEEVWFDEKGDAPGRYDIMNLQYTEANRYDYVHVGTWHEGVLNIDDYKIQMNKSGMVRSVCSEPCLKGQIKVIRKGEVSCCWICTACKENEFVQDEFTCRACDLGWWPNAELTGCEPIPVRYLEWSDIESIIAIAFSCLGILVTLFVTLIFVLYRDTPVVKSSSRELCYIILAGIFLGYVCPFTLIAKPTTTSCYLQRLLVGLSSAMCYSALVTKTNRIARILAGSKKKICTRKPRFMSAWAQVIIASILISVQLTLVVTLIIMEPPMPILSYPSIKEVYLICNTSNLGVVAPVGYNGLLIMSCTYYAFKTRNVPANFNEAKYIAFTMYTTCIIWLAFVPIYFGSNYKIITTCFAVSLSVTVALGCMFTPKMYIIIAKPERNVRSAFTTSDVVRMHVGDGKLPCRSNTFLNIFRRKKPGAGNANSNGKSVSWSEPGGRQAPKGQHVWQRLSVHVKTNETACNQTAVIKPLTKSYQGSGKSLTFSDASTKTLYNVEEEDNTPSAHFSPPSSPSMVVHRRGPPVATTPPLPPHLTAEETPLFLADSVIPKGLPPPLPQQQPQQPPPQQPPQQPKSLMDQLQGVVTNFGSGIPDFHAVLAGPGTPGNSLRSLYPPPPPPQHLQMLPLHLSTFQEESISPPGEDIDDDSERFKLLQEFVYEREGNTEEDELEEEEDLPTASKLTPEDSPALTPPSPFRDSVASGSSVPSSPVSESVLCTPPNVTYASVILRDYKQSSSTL
Chain of Metabotropic glutamate receptor 7 (Q14831 whole entry): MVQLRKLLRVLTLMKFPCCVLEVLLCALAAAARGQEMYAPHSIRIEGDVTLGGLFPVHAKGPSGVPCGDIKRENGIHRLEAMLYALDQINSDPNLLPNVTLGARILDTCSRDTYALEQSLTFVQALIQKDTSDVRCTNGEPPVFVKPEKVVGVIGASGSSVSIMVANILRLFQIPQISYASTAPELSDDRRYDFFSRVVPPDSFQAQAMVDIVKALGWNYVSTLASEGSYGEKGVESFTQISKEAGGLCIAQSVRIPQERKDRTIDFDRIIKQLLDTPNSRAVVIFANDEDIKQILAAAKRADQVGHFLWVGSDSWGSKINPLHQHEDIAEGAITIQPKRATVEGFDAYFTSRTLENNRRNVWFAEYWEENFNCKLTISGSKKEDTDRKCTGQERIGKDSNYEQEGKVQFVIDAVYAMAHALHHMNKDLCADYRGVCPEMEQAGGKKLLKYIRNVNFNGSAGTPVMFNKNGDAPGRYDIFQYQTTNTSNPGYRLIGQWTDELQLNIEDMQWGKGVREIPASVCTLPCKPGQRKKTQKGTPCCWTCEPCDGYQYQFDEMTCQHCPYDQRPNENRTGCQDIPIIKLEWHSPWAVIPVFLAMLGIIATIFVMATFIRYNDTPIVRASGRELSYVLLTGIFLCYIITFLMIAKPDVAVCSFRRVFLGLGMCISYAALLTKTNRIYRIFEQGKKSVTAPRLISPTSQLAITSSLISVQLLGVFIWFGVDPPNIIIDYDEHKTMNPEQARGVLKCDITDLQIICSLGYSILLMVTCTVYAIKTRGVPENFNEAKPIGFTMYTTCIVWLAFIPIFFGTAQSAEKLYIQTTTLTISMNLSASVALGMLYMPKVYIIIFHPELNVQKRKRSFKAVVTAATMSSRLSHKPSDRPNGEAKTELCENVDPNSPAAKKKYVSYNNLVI
Chain of Metabotropic glutamate receptor 5 (P31424 whole entry): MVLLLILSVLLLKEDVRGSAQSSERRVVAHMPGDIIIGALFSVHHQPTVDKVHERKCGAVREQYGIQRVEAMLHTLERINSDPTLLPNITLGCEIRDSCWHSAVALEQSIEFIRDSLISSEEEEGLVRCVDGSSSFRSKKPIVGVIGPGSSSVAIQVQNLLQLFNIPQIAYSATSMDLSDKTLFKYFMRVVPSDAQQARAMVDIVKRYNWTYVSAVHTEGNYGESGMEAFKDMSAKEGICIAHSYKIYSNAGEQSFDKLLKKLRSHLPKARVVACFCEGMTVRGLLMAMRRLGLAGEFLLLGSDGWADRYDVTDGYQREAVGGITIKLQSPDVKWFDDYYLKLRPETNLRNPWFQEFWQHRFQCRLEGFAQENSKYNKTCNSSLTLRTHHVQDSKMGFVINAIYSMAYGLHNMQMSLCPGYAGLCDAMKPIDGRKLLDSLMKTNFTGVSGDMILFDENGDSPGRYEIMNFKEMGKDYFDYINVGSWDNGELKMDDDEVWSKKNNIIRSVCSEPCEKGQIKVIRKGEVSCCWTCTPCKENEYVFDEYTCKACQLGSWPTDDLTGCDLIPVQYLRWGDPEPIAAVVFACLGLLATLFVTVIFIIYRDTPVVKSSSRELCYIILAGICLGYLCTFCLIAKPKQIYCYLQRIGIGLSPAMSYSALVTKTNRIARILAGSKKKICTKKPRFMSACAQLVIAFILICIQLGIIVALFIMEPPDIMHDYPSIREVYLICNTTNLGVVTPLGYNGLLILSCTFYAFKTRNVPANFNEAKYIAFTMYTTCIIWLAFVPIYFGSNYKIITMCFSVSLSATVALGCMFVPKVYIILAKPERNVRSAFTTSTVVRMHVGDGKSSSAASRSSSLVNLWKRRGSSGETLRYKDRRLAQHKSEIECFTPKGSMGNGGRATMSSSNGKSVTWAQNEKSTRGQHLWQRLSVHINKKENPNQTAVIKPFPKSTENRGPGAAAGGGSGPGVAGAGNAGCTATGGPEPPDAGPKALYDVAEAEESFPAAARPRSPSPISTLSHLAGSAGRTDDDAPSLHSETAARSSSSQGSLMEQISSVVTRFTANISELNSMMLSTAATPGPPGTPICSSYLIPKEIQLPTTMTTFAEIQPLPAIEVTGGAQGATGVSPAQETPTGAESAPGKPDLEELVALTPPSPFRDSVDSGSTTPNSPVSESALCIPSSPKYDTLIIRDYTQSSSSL

| SMILES | Ki [1] | EC50 [2] | Ki [3] | EC50 [4] | EC50 [5] | EC50 [6] | EC50 [7] | EC50 [8] |
| --- | --- | --- | --- | --- | --- | --- | --- | --- |
| N[C@H](C(=O)O)[C@H]1C[C@@H]1P(=O)(O)O | 63 µM | 700 µM | 7.4 µM | 13 µM | > 1000 µM | > 1000 µM | > 1000 µM | 9.4 µM |
| N[C@H](C(=O)O)[C@@H]1C[C@H]1P(=O)(O)O | 54 µM | > 1000 µM | 53 µM | 46 µM | > 1000 µM | > 1000 µM | > 1000 µM | 49 µM |
| N[C@@H](CCP(=O)(O)O)C(=O)O | 1.9 µM | 188 µM | 0.16 µM | 0.34 µM | > 1000 µM | > 1000 µM | > 1000 µM | 0.51 µM |
| N[C@@H](CCC(=O)O)C(=O)O [GLUTAMIC ACID] | 3.4 µM | > 1000 µM | 3.4 µM | 7.6 µM |  |  |  | 6.1 µM |
